Among the data in patent publication US9737542B2, “Pyrrolotriazine kinase inhibitors” (BRISTOL-MYERS SQUIBB COMPANY, priority 2013, dated 2017) are Response and IC50 values, retold here.

Structures are written as SMILES.

Assay [1] relates to mice (pain response, formalin paw test). Kind of assay: formalin paw test. Format: in vivo, mouse. The settings on record: % response relative to gabapentin 200 mg/kg. How it is done: AAK1 homozygous (−/−) and their wild-type (+/+) littermates were tested using the formalin paw test in order to assess their acute and tonic nociceptive responses. For these tests, Automatic Nociception Analyzers (purchased from the Ozaki lab at University of California, San Diego) were used. A metal band was placed around the left hind paw of each mouse 30 minutes prior to testing. After the 30-minute acclimation period, 20 μl of 5% formalin is subcutaneously injected in the dorsal surface of the left hind paw. Mice were individually housed in cylindrical chambers for 45 minutes. Fresh 5% formalin solution was prepared by diluting formaldehyde (Formalde-fresh 20%, Fisher Scientific, Fair Lawn, N.J.) with distilled water. Investigatory compounds were administered 30 minutes prior to formalin injection.
A computer recorded flinches per minute, total flinches for phase I (acute phase=first 8 minutes), and total flinches for phase II (tonic phase=time between minutes 20-40 or 10-60 minutes for drug studies) through an electromagnetic field. See Yaksh T L, Ozaki G, McCumber D, Rathbun M, Svensson C, Malkmus S, Yaksh M C. An automated flinch detecting system for use in the formalin nociceptive bioassay. J Appl Physiol., 2001; 90:2386-402.
The same test was used to confirm that the administration of an AAK1 inhibitor can also affect pain response. […]

For the next assay, the target named is GST-Xa-hAAK1 (Homo sapiens (Human), UniProt Q2M2I8). Briefly: AAK1 Kinase Assay. Format: biochemical. Particulars: ATP 22 μM, 3 hours at room temperature.
Sequence of GST-Xa-hAAK1 (Q2M2I8 whole entry): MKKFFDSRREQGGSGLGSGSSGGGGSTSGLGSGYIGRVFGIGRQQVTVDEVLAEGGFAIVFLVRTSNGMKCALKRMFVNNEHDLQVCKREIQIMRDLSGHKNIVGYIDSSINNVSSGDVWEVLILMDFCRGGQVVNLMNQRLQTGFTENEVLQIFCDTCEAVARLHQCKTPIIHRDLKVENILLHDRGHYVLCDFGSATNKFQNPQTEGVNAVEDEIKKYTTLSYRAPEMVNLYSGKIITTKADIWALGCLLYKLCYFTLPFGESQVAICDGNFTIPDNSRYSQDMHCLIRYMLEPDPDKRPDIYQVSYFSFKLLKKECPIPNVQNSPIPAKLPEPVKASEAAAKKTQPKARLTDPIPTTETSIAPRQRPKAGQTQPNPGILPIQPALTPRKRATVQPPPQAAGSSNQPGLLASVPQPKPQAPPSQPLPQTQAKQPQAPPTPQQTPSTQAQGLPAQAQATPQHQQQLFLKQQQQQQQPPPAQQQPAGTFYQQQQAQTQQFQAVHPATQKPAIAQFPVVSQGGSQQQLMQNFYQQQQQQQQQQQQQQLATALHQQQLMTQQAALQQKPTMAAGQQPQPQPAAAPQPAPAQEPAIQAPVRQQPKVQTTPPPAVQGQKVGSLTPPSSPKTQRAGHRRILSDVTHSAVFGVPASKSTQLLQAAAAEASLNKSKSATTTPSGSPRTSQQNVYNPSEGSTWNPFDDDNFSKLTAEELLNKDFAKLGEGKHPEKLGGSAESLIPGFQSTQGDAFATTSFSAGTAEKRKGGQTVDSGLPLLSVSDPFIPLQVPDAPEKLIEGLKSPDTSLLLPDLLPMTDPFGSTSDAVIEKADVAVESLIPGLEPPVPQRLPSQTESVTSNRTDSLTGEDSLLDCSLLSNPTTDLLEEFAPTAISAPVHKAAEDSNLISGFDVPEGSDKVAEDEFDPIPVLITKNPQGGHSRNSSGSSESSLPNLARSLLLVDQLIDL

Procedure for GST-Xa-hAAK1: The assays were performed in U-bottom 384-well plates. […] The reactions were initiated by the combination of bacterially expressed, GST-Xa-hAAK1 with substrates and test compounds. The reactions were incubated at room temperature for 3 hours and terminated by adding 60 μl of 35 mM EDTA buffer to each sample. The reactions were analyzed on the Caliper LabChip 3000 (Caliper, Hopkinton, Mass.) by electrophoretic separation of the fluorescent substrate and phosphorylated product. Inhibition data were calculated by comparison to EDTA quenched control reactions for 100% inhibition and vehicle-only reactions for 0% inhibition. […] Dose response curves were generated to determine the concentration required inhibiting 50% of kinase activity (IC50). Compounds were dissolved at 10 mM in dimethylsulfoxide (DMSO) and evaluated at eleven concentrations. IC50 values were derived by non-linear regression analysis.

On to `NCC1(CC(=O)O)CCCCC1` [Gabapentin, reference compound], for which the Response in assay [1] (200 mg/kg sc) worked out at 73%.
On to `CC(C)c1nc(-c2cccc(NC(=O)c3cnc4ccc(NC5CCC(N)CC5)nn34)c2)no1` [6-(((1R,4R)-4-aminocyclohexyl)amino)-N-(3-(5-isopropyl-1,2,4-oxadiazol-3-yl)phenyl)imidazo[1,2-b]pyridazine-3-carboxamide], for which the Response in assay [1] (60 mg/kg sc) turned out to be 59%.
`CNC1CCN(Cc2ccn3ncnc(Nc4cccc(-c5nnc(C(C)C)s5)c4)c23)C1` (centres unmarked) [Example 30, N-(3-(5-isopropyl-1,3,4-thiadiazol-2-yl)phenyl)-5-((3-(methylamino)pyrrolidin-1-yl)methyl)pyrrolo[2,1-f][1,2,4]triazin-4-amine] yielded an IC50 against GST-Xa-hAAK1 (listed as IC50 ranges) of 100 to 1000 nM.
On GST-Xa-hAAK1 (listed as IC50 ranges), `CNC1CCN(Cc2ccn3ncnc(Nc4cccc(-c5nnn(C(C)C)n5)c4)c23)CC1` [Example 42, N-(3-(2-isopropyl-2H-tetrazol-5-yl)phenyl)-5-((4-(methylamino)piperidin-1-yl)methyl)pyrrolo[2,1-f][1,2,4]triazin-4-amine] showed an IC50 of 10 to 100 nM.
Turning to `NC1CCN(Cc2ccn3ncnc(Nc4cccc(-c5noc(C6CCCCC6)n5)c4)c23)CC1` [Example 22, 5-((4-aminopiperidin-1-yl)methyl)-N-(3-(5-cyclohexyl-1,2,4-oxadiazol-3-yl)phenyl)pyrrolo[2,1-f][1,2,4]triazin-4-amine], the IC50 against GST-Xa-hAAK1 is 14 nM.
With `NC1CN(Cc2ccn3ncnc(Nc4cccc(-c5nnc(C6CC6)s5)c4)c23)C1` [Example 25, 5-((3-aminoazetidin-1-yl)methyl)-N-(3-(5-cyclopropyl-1,3,4-thiadiazol-2-yl)phenyl)pyrrolo[2,1-f][1,2,4]triazin-4-amine], at GST-Xa-hAAK1 (listed as IC50 ranges), the IC50 is 100 to 1000 nM.
`CC(C)c1nnc(-c2cccc(Nc3ncnn4ccc(CN5CC(N)C5)c34)c2)s1` [Example 28, 5-((3-aminoazetidin-1-yl)methyl)-N-(3-(5-isopropyl-1,3,4-thiadiazol-2-yl)phenyl)pyrrolo[2,1-f][1,2,4]triazin-4-amine]: the IC50 against GST-Xa-hAAK1 (listed as IC50 ranges) lay within 100 to 1000 nM.
Regarding `Cc1ccn2ncnc(Nc3cccc(-c4noc(C(C)C)n4)c3)c12` [Example 86], at GST-Xa-hAAK1, the IC50 came out at 123 nM.
In turn, `CC(C)c1nnc(-c2cccc(Nc3ncnn4ccc(CN5CCC(N)CC5)c34)c2)s1` [Example 9, 5-((4-aminopiperidin-1-yl)methyl)-N-(3-(5-isopropyl-1,3,4-thiadiazol-2-yl)phenyl)pyrrolo[2,1-f][1,2,4]triazin-4-amine] had an IC50 on GST-Xa-hAAK1 (listed as IC50 ranges) of 10 to 100 nM.
On to `CC(C)n1nnc(-c2cc(Nc3ncnn4ccc(CN5CCC(N)CC5)c34)ccc2F)n1` [Example 49, 5-((4-aminopiperidin-1-yl)methyl)-N-(4-fluoro-3-(2-isopropyl-2H-tetrazol-5-yl)phenyl)pyrrolo[2,1-f][1,2,4]triazin-4-amine], for which the IC50 at GST-Xa-hAAK1 is 21 nM.
Regarding `CC(C)n1nnc(-c2cccc(Nc3ncnn4cccc34)c2)n1` [Example 76, N-(3-(2-isopropyl-2H-tetrazol-5-yl)phenyl)pyrrolo[2,1-f][1,2,4]triazin-4-amine], on GST-Xa-hAAK1, it took 220 nM to reach half-maximal inhibition (IC50).
Turning to `Cc1ccn2ncnc(Nc3cc(O)cc(-c4noc(C(C)C)n4)c3)c12` [Example 93, 3-(5-isopropyl-1,2,4-oxadiazol-3-yl)-5-((5-methylpyrrolo[2,1-f][1,2,4]triazin-4-yl)amino)phenol], the IC50 against GST-Xa-hAAK1 worked out at 73 nM.
`Cc1nnc(-c2cccc(Nc3ncnn4ccc(CN5CC(N)C5)c34)c2)s1` [Example 19, 5-((3-aminoazetidin-1-yl)methyl)-N-(3-(5-methyl-1,3,4-thiadiazol-2-yl)phenyl)pyrrolo[2,1-f][1,2,4]triazin-4-amine] came in with an IC50 at GST-Xa-hAAK1 of 2120 nM.
The same measure, in the same setting: next, `Cc1ccn2ncnc(Nc3cccc(-c4nnc(C(C)C)s4)c3)c12` [Example 87, N-(3-(5-isopropyl-1,3,4-thiadiazol-2-yl)phenyl)-5-methylpyrrolo[2,1-f][1,2,4]triazin-4-amine]: 325 nM; `CCNC(=O)c1ccn2ncnc(Nc3cccc(-c4nnn(C(C)C)n4)c3)c12` [Example 104, N-ethyl-4-((3-(2-isopropyl-2H-tetrazol-5-yl)phenyl)amino)pyrrolo[2,1-f][1,2,4]triazine-5-carboxamide]: 195 nM.
On GST-Xa-hAAK1, `CC(C)n1nnc(-c2cccc(Nc3ncnn4ccc(CN5CCC(N)CC5)c34)c2)n1` [Example 8, 5-((4-aminopiperidin-1-yl)methyl)-N-(3-(2-isopropyl-2H-tetrazol-5-yl)phenyl)pyrrolo[2,1-f][1,2,4]triazin-4-amine] yielded an IC50 of 7.3 nM.
At GST-Xa-hAAK1, `CCOC(=O)c1ccn2ncnc(Nc3cccc(-c4noc(C(C)C)n4)c3)c12` [Example 97, ethyl 4-((3-(5-isopropyl-1,2,4-oxadiazol-3-yl)phenyl)amino)pyrrolo[2,1-f][1,2,4]triazine-5-carboxylate] registered an IC50 of 883 nM.
In turn, `CNC1CCN(Cc2ccn3ncnc(Nc4cccc(-c5nnc(C(C)C)s5)c4)c23)CC1` [Example 27, N-(3-(5-isopropyl-1,3,4-thiadiazol-2-yl)phenyl)-5-((4-(methylamino)piperidin-1-yl)methyl)pyrrolo[2,1-f][1,2,4]triazin-4-amine] came in with a 50% inhibitory concentration (IC50) against GST-Xa-hAAK1 (listed as IC50 ranges) of 100 to 1000 nM.
`CC(C)n1nnc(-c2cc(O)cc(Nc3ncnn4cccc34)c2)n1` [Example 84, 3-(2-isopropyl-2H-tetrazol-5-yl)-5-(pyrrolo[2,1-f][1,2,4]triazin-4-ylamino)phenol] showed an IC50 against GST-Xa-hAAK1 of 75 nM.
Compound `CC(C)n1nnc(-c2cccc(Nc3ncnn4ccc(CN5[C@@H]6CC[C@H]5CC(O)C6)c34)c2)n1` (stereo partly drawn) [Example 59, (1R,5S)-8-((4-((3-(2-isopropyl-2H-tetrazol-5-yl)phenyl)amino)pyrrolo[2,1-f][1,2,4]triazin-5-yl)methyl)-8-azabicyclo[3.2.1]octan-3-ol] showed an IC50 at GST-Xa-hAAK1 of 128 nM.
